Test results taken from PubChem BioAssay AID2060900 (Molecular Pharmacology Branch, DTP, NCI, 2025).

System: 521955-158-R2-J5-PDC complex spheroids, viability
Assay: Anticancer human tumor 521955-158-R2-J5-PDC patient-derived pancreatic carcinoma cell line growth inhibition [RAS]
Details: for IC50: curve of first compound; for viability, T/C: stronger effect = lower value
In short: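 Multi-cell-type spheroids: tumor cells plus HUVEC endothelial cells and mesenchymal stem cells. RAS-pathway inhibitors were combined with targeted agents, each dosed in half-log steps down from clinical Cmax, or from 10 microM when Cmax was unknown.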

[1] = second compound 0.000949 µM, first compound 0.0316 µM
[2] = second compound 0.000949 µM, first compound 0.1 µM
[3] = second compound 0.000949 µM, first compound 0.316 µM
[4] = second compound 0.000949 µM, first compound 1 µM
[5] = second compound 0.003 µM, first compound 0.0316 µM
[6] = second compound 0.003 µM, first compound 0.1 µM
[7] = second compound 0.003 µM, first compound 0.316 µM
[8] = second compound 0.003 µM, first compound 1 µM
[9] = second compound 0.00949 µM, first compound 0.0316 µM
[10] = second compound 0.00949 µM, first compound 0.1 µM
[11] = second compound 0.00949 µM, first compound 0.316 µM
[12] = second compound 0.00949 µM, first compound 1 µM
[13] = second compound 0.03 µM, first compound 0.0316 µM
[14] = second compound 0.03 µM, first compound 0.1 µM
[15] = second compound 0.03 µM, first compound 0.316 µM
[16] = second compound 0.03 µM, first compound 1 µM
[17] = second compound 0.0949 µM, first compound 0.0316 µM
[18] = second compound 0.0949 µM, first compound 0.1 µM
[19] = second compound 0.0949 µM, first compound 0.316 µM
[20] = second compound 0.0949 µM, first compound 1 µM
[21] = second compound 0.3 µM, first compound 0.0316 µM
[22] = second compound 0.3 µM, first compound 0.1 µM
[23] = second compound 0.3 µM, first compound 0.316 µM
[24] = second compound 0.3 µM, first compound 1 µM
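Further: compound exposure lasted seven days before the viability read.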
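Wherever viability, T/C is given: spheroids also contain HUVEC endothelial cells and mesenchymal stem cells as stroma.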

Compound: CC(=O)OC12COC1CC(O)C1(C)C(=O)C(O)C3=C(C)C(OC(=O)C(O)C(NC(=O)OC(C)(C)C)c4ccccc4)CC(O)(C(OC(=O)c4ccccc4)C21)C3(C)C (centres undefined) + CCn1c(-c2cccnc2C(C)OC)c2c3cc(ccc31)N1CCOC(CC(NC(=O)C(C(C)C)N(C)C(=O)C3(F)CCN(C(=O)C#CC(C)(C)N(C)C)CC3)C(=O)N3CCCC(N3)C(=O)OCC(C)(C)C2)C1
- IC50 (second compound 0.000949 µM): < 31.6 nM
- IC50 (second compound 0.003 µM): < 31.6 nM
- IC50 (second compound 0.00949 µM): < 31.6 nM
- IC50 (second compound 0.03 µM): < 31.6 nM
- IC50 (second compound 0.0949 µM): < 31.6 nM
- IC50 (second compound 0.3 µM): < 31.6 nM
- viability, T/C [1]: 47.5%
- viability, T/C [2]: 23%
- viability, T/C [3]: 24.6%
- viability, T/C [4]: 22%
- viability, T/C (second compound 0.000949 µM, first compound 3.16 µM): 28%
- viability, T/C (second compound 0.000949 µM, first compound 10 µM): 40.4%
- viability, T/C [5]: 31.7%
- viability, T/C [6]: 25.1%
- viability, T/C [7]: 27.6%
- viability, T/C [8]: 23.8%
- viability, T/C (second compound 0.003 µM, first compound 3.16 µM): 28.9%
- viability, T/C (second compound 0.003 µM, first compound 10 µM): 42.2%
- viability, T/C [9]: 33.5%
- viability, T/C [10]: 24.6%
- viability, T/C [11]: 23.6%
- viability, T/C [12]: 25.8%
- viability, T/C (second compound 0.00949 µM, first compound 3.16 µM): 40%
- viability, T/C (second compound 0.00949 µM, first compound 10 µM): 38.1%
- viability, T/C [13]: 35.7%
- viability, T/C [14]: 20.3%
- viability, T/C [15]: 22.8%
- viability, T/C [16]: 22.9%
- viability, T/C (second compound 0.03 µM, first compound 3.16 µM): 32.3%
- viability, T/C (second compound 0.03 µM, first compound 10 µM): 41.6%
- viability, T/C [17]: 39.1%
- viability, T/C [18]: 26.8%
- viability, T/C [19]: 19.3%
- viability, T/C [20]: 25.5%
- viability, T/C (second compound 0.0949 µM, first compound 3.16 µM): 38.2%
- viability, T/C (second compound 0.0949 µM, first compound 10 µM): 41.1%
- viability, T/C [21]: 32.7%
- viability, T/C [22]: 22.7%
- viability, T/C [23]: 23.4%
- viability, T/C [24]: 32.3%
- viability, T/C (second compound 0.3 µM, first compound 3.16 µM): 41.9%
- viability, T/C (second compound 0.3 µM, first compound 10 µM): 39.9%

Compound: Nc1ccn(C2OC(CO)C(O)C2(F)F)c(=O)n1 (centres undefined) + CCn1c(-c2cccnc2C(C)OC)c2c3cc(ccc31)N1CCOC(CC(NC(=O)C(C(C)C)N(C)C(=O)C3(F)CCN(C(=O)C#CC(C)(C)N(C)C)CC3)C(=O)N3CCCC(N3)C(=O)OCC(C)(C)C2)C1
- IC50 (second compound 0.000949 µM): 156 nM
- IC50 (second compound 0.003 µM): 204 nM
- IC50 (second compound 0.00949 µM): 251 nM
- IC50 (second compound 0.03 µM): 284 nM
- IC50 (second compound 0.0949 µM): 190 nM
- IC50 (second compound 0.3 µM): 109 nM
- viability, T/C (second compound 0.000949 µM, first compound 0.00316 µM): 112%
- viability, T/C (second compound 0.000949 µM, first compound 0.01 µM): 80.2%
- viability, T/C [1]: 75.4%
- viability, T/C [2]: 56.8%
- viability, T/C [3]: 51.6%
- viability, T/C [4]: 14.4%
- viability, T/C (second compound 0.003 µM, first compound 0.00316 µM): 97.8%
- viability, T/C (second compound 0.003 µM, first compound 0.01 µM): 90.3%
- viability, T/C [5]: 79.3%
- viability, T/C [6]: 67.1%
- viability, T/C [7]: 39.6%
- viability, T/C [8]: 11.8%
- viability, T/C (second compound 0.00949 µM, first compound 0.00316 µM): 85.3%
- viability, T/C (second compound 0.00949 µM, first compound 0.01 µM): 91%
- viability, T/C [9]: 75.9%
- viability, T/C [10]: 79.8%
- viability, T/C [11]: 42.6%
- viability, T/C [12]: 15.6%
- viability, T/C (second compound 0.03 µM, first compound 0.00316 µM): 95.5%
- viability, T/C (second compound 0.03 µM, first compound 0.01 µM): 78.9%
- viability, T/C [13]: 69%
- viability, T/C [14]: 69.4%
- viability, T/C [15]: 53.4%
- viability, T/C [16]: 10.1%
- viability, T/C (second compound 0.0949 µM, first compound 0.00316 µM): 79.5%
- viability, T/C (second compound 0.0949 µM, first compound 0.01 µM): 77.9%
- viability, T/C [17]: 62.5%
- viability, T/C [18]: 65.2%
- viability, T/C [19]: 41.2%
- viability, T/C [20]: 11.2%
- viability, T/C (second compound 0.3 µM, first compound 0.00316 µM): 72.2%
- viability, T/C (second compound 0.3 µM, first compound 0.01 µM): 66.9%
- viability, T/C [21]: 59.6%
- viability, T/C [22]: 51.8%
- viability, T/C [23]: 36.5%
- viability, T/C [24]: 12.6%
